{"source": "paper PMC6271858", "about": "“Identification of Natural Compound Carnosol as a Novel TRPA1 Receptor Agonist” (Molecules, 2014)", "key": {"HEK293 host cells": {"system": "HEK293 host cells", "assay": "Compound specificity assay, calcium influx in HEK293 host cells", "format": "cell-based, human", "conditions": "compared with 0.25% DMSO group; positive control 5 μM ATP", "method": "To observe whether the identified compounds induce calcium influx in HEK293 host cells, the cells were treated with various concentrations of tested compounds. Meanwhile, 5 μM ATP and 0.25% DMSO were used as the positive and negative control, respectively. The regulatory activity of tested samples was defined as follows: (3) Activity%=RFUcompound/RFUpositive×100"}, "human TRPA1": {"biological_target": "human TRPA1 (Homo sapiens, UniProt O75762)", "sequence (O75762 whole entry)": "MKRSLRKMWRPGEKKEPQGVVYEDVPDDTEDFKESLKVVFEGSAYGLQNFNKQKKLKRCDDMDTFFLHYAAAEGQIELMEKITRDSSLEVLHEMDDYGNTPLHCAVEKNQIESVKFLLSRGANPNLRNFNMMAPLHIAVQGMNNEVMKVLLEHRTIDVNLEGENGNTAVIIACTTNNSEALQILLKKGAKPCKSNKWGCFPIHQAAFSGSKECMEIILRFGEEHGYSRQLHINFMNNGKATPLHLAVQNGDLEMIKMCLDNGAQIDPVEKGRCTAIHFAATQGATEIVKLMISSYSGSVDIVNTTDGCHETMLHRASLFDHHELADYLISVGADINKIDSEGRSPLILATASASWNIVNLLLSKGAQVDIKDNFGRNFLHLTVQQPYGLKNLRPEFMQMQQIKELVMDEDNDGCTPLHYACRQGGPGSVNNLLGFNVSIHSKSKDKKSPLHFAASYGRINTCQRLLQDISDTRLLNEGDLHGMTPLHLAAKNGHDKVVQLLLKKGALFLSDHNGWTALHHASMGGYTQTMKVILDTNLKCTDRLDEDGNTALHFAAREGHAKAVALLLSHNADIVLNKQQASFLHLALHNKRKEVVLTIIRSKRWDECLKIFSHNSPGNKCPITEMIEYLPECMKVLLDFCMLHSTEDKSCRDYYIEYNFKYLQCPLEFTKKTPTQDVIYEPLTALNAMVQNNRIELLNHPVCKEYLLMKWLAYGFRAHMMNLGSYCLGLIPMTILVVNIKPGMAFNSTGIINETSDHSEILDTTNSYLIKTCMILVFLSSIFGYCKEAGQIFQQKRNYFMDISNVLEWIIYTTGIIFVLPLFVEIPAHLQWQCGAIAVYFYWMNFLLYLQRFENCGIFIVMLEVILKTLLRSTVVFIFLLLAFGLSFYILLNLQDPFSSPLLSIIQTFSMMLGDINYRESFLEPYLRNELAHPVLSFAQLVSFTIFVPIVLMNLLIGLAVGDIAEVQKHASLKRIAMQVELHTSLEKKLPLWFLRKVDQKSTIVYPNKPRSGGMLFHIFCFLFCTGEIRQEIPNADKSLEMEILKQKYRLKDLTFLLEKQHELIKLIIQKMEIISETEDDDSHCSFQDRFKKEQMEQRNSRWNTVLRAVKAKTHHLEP", "assay": "Calcium mobilization agonist assay in HEK293/TRPA1 cells", "format": "cell-based", "conditions": "for EC80 value: agonist concentration used to evoke the antagonist assay", "method": "HEK293/TRPA1 cells were seeded at a density of 3.5 × 10^4 per well into 96-well clear-bottom black plates coated with matrigel and incubated in 5% CO2 at 37 °C overnight. On the day of assay, the growth medium was replaced by 100 µL loading buffer containing a final concentration of 4 μM Ca^2+-sensitive dye Fluo-4 AM and 2 mM acid red 1 in HBSS. The plate was then incubated at 37 °C in dark for 30 min before calcium signal read out. For antagonists study, 80 µL loading buffer was added into each well and 20 µL HBSS containing tested compound was added 10 min prior to calcium-flux measurement.\nCells were transferred to a Flexstation II (Molecular Devices) for experimentation. Basal fluorescence was recorded for 16 s before agonist application. The integrated Flexstation II fluidics system added 25 µL compound (5× solution) from the agonist compound plate to the assay plate containing 100 µL loading buffer solution. Relative fluorescence units (RFU) were read by FlexStation II at 37 °C with an excitation wavelength of 485 nm and an emission wavelength of 525 nm. The fluorescence intensity was read every 1.52 s for 80 s.\nNinety µM CA and 0.25% DMSO were used as the positive and negative control respectively during primary screening of TRPA1 agonist. Hits above the cutoff value (50%) were picked for retesting, percentage of increased calcium signal was calculated as following equation: (2) Activity%=RFUcompound−RFUnegative/RFUpositive−RFUnegative×100"}, "TRPV3": {"biological_target": "T1, TRPV3 (Homo sapiens, UniProt Q8NET8)", "T1 sequence (Q8NET8 1-790)": "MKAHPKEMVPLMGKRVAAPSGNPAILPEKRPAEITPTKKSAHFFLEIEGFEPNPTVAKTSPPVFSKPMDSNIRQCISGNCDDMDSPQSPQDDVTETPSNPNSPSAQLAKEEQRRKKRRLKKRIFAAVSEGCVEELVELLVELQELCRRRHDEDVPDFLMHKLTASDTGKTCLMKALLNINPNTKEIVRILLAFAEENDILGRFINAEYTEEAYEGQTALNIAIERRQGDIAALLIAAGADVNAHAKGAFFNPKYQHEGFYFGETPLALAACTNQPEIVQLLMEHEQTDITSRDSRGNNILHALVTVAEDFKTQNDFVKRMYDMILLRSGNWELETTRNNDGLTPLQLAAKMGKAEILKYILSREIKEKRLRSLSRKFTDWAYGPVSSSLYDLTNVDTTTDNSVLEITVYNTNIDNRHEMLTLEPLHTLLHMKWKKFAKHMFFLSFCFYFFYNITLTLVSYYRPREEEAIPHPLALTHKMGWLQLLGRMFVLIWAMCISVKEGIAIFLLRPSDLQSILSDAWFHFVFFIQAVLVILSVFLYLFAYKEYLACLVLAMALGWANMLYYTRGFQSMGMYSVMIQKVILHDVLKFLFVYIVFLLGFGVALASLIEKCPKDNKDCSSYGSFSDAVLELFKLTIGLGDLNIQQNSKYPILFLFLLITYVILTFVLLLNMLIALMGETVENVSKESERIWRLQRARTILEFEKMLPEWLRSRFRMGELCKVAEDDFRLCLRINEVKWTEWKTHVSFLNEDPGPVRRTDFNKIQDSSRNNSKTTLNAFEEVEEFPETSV", "assay": "Compound selectivity calcium mobilization assay in HEK293/TRPV3 cells", "format": "cell-based", "conditions": "series of concentrations", "method": "All HEK293 cell lines used in this study were routinely maintained in DMEM containing 10% FBS, 100 U/mL penicillin, and 100 μg/mL streptomycin in a humidified atmosphere of 5% CO2 at 37 °C. HEK293/TRPA1, HEK293/TRPM8 and HEK293/TRPV3 cells were incubated with complete culture medium along with 50 μg/mL hygromycin B.\n(§1) To study the specificity of the action target of identified compounds, the activating effect on TRPM8 and TRPV3 was tested. HEK293 cell lines stably expressing TRPM8 and TRPV3 receptors were separately stimulated by a serious concentrations of identified compounds using calcium mobilization assay as described above."}, "TRPM8": {"biological_target": "TRPM8 (Homo sapiens, UniProt Q7Z2W7)", "sequence (Q7Z2W7 whole entry)": "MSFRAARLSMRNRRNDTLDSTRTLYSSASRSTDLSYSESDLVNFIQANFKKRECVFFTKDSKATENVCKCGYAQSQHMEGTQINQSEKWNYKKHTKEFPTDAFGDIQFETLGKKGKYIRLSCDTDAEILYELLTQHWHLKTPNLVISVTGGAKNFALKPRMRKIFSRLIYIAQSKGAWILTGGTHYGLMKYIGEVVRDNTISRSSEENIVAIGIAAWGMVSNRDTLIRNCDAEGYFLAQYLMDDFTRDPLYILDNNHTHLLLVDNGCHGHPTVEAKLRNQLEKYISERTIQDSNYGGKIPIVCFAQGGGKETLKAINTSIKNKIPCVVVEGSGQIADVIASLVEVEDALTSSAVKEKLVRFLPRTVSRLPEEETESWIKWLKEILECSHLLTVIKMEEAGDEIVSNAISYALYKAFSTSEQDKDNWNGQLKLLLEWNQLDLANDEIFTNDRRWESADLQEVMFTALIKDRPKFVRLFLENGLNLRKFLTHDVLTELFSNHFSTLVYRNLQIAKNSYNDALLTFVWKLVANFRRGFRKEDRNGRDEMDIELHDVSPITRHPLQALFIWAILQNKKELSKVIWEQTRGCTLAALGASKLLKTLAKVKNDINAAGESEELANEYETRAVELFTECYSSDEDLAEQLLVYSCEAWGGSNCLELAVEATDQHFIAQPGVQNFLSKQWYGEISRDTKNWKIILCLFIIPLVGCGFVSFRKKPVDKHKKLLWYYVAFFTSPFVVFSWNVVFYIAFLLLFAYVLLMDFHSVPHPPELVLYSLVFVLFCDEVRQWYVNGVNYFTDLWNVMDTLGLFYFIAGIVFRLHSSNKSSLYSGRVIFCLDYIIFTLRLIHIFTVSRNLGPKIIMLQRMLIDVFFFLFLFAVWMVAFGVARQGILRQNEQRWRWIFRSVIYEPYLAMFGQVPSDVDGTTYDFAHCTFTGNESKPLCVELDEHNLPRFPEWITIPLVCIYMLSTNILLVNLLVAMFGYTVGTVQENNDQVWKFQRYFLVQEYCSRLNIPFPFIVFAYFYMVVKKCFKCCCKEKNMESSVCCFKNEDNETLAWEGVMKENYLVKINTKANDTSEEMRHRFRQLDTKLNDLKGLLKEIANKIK", "assay": "Compound selectivity calcium mobilization assay in HEK293/TRPM8 cells", "format": "cell-based", "method": "HEK 293 cell lines stably expressing human TRPA1, TRPM8 and TRPV3 channels, respectively, were established by HD Bioscience Co. Ltd (SH, China) according to the cell line generation procedure in published articles of our laboratory. All HEK293 cell lines used in this study were routinely maintained in DMEM containing 10% FBS, 100 U/mL penicillin, and 100 μg/mL streptomycin in a humidified atmosphere of 5% CO2 at 37 °C. HEK293/TRPA1, HEK293/TRPM8 and HEK293/TRPV3 cells were incubated with complete culture medium along with 50 μg/mL hygromycin B.\nas §1"}, "HEK293/TRPA1 cells": {"system": "HEK293/TRPA1 cells", "assay": "Compound cytotoxicity assay (CellTiter-Glo, luciferase coupled ATP quantitation)", "format": "cell-based, human", "conditions": "2 h incubation, compared to the control group", "method": "HEK293/TRPA1 cells were seeded at 3.5 × 10^4 per well into 96-well clear-bottom black plates and incubated in 5% CO2 at 37 °C overnight. Different concentrations of the compound were added into the 96-well plates and incubated in 5% CO2 at 37 °C for 2 h. Luminescence was read by Envision 2100 multilabel reader to detect cells’ viability following incubation with CellTiter-Glo reagent for 10 min."}}, "note": "pEC50: −log10 of the molar value. “Also recorded” adds a separate entry of the source. Read-outs that look alike come from different tables or passages of the source."}
{"smiles": "CC(C)c1cc2c(c(O)c1O)[C@@]1(C(=O)O)CCCC(C)(C)[C@@H]1CC2", "note": "[carnosic acid, Carnosic acid]", "values": [{"measurement": "Calcium signal in HEK293 host cells", "setting": "HEK293 host cells", "result": "acted on HEK293 host cells"}, {"measurement": "Calcium signal in HEK293/TRPA1 cell line", "setting": "human TRPA1; at 90 µM", "result": "caused calcium signal"}]}
{"smiles": "CC(C)c1cc2c(c(O)c1O)[C@@]13CCCC(C)(C)[C@@H]1C[C@@H]2OC3=O", "note": "[carnosol, Carnosol]", "values": [{"measurement": "Stimulation signal in HEK/TRPV3 cell line", "setting": "TRPV3", "result": "no stimulation signal"}, {"measurement": "Calcium signal in HEK293 host cells", "setting": "HEK293 host cells", "result": "no significant difference"}, {"measurement": "Stimulation signal in HEK/TRPM8 cell line", "setting": "TRPM8; series of concentrations, calcium mobilization", "result": "no stimulation signal"}, {"measurement": "Cytotoxicity on HEK293/TRPA1 cells", "setting": "HEK293/TRPA1 cells", "result": "no significant cytotoxicity"}, {"measurement": "Calcium signal in primary screening", "setting": "human TRPA1; 10 μM, HEK293/TRPA1 cells, positive control 90 µM CA, negative control 0.25% DMSO", "result": "showed significant difference compared with the negative control; also recorded: comparable to the positive control"}, {"measurement": "EC80 value", "setting": "human TRPA1; HEK293/TRPA1 cells", "result": 30, "unit": "µM"}, {"measurement": "pEC50", "setting": "human TRPA1; HEK293/TRPA1 cells, calcium mobilization, agonist concentration-response, read-out: EC50", "result": 4.90}]}
{"smiles": "O=C1NC(c2cccc([N+](=O)[O-])c2)=CCN1c1ccccc1O", "note": "[icilin, Icilin, reference compound]", "values": [{"measurement": "pEC50", "setting": "TRPM8; HEK293/TRPM8 cells, calcium response (data not shown)", "result": 6.77}]}
{"smiles": "C[C@H]1[C@H](C)CC[C@]2(C(=O)O)CC[C@]3(C)C(=CC[C@@H]4[C@@]5(C)CC[C@H](O)C(C)(C)[C@@H]5CC[C@]43C)[C@H]12", "note": "[ursolic acid, Ursolic acid]", "values": [{"measurement": "Calcium signal in HEK293/TRPA1 cell line", "setting": "human TRPA1; up to 90 µM", "result": "no significant calcium signal"}]}
{"smiles": "O=C/C=C/c1ccccc1", "note": "[CA, cinnamaldehyde, reference compound]", "values": [{"measurement": "pEC50", "setting": "human TRPA1", "result": 4.50}, {"measurement": "EC80 value", "setting": "human TRPA1; HEK293/TRPA1 cells", "result": 90, "unit": "µM"}]}
